Reference: patent US10040759B2, “Substituted azetidinyl compounds as GlyT1 inhibitors” (DART NEUROSCIENCE (CAYMAN) LTD., priority 2014, dated 2018)

Target: T1, GlyT1 (Homo sapiens, UniProt P48067)
T1 construct: expressed in transfected cells
T1 sequence (P48067 1-706): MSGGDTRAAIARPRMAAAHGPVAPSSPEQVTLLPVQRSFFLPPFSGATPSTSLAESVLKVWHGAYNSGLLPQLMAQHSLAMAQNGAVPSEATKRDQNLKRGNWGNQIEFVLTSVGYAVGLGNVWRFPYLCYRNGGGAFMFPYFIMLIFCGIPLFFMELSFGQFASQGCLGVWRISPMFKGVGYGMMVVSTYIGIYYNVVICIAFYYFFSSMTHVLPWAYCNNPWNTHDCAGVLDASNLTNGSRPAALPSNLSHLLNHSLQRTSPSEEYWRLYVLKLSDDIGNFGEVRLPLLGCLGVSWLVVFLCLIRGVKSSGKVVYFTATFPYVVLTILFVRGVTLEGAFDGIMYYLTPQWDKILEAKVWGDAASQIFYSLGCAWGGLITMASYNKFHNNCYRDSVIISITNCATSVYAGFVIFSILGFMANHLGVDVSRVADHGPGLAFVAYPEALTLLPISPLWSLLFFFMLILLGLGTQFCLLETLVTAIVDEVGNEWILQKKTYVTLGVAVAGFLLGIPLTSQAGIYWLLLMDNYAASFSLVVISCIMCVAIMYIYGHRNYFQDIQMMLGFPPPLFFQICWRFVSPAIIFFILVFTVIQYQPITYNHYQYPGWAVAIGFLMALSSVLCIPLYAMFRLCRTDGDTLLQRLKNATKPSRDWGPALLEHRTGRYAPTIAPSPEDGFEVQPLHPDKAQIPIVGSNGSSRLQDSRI
Experiment: Glycine Transporter 1 (GlyT1) uptake assay, scintillation proximity assay of [14C]-glycine uptake
Type: cell-based
Conditions: [14C]-glycine uptake; read-out: GlyT1 (pIC50) (converted)
In short: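 IC50 values were derived by four-parameter logistic fitting of counts. The 2× compound solutions were made by 1:100 dilution into HBSS of DMSO serial dilutions.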

Structure (SMILES)	IC50 [nM]
COc1c(C#N)ccc(O[C@@H](C)C(F)(F)F)c1C(=O)N1CC(c2ccc(C#N)c(Cl)c2)C1 [Example 122, 3-{[3-(3-Chloro-4-cyanophenyl)azetidin-1-yl]carbonyl}-2-methoxy-4-{[(2S)-1,1,1-trifluoropropan-2-yl]oxy}benzonitrile]	< 100
COc1c(C#N)ccc(O[C@@H](C)C(F)(F)F)c1C(=O)N1CC(c2ccccc2C#N)C1 [Example 123, 3-{[3-(2-Cyanophenyl)azetidin-1-yl]carbonyl}-2-methoxy-4-{[(2S)-1,1,1-trifluoropropan-2-yl]oxy}benzonitrile]	< 100
COc1c(C#N)ccc(O[C@@H](C)C(F)(F)F)c1C(=O)N1CC(c2ccc(C#N)c(F)c2Cl)C1 [Example 124, 3-Chloro-4-{1-[(3-cyano-2-methoxy-6-{[(2S)-1,1,1-trifluoropropan-2-yl]oxy}phenyl)carbonyl]azetidin-3-yl}-2-fluorobenzonitrile]	< 100
COc1c(C#N)ccc(OCC(F)(F)F)c1C(=O)N1CC(c2ccc(C(F)(F)F)cn2)C1 [Example 125, 2-Methoxy-4-(2,2,2-trifluoroethoxy)-3-({3-[5-(trifluoromethyl)pyridin-2-yl]azetidin-1-yl}carbonyl)benzonitrile]	< 100
COc1c(C#N)ccc(O[C@@H](C)C(F)(F)F)c1C(=O)N1CC(c2ccc(Cl)cc2C#N)C1 [Example 126, 3-{[3-(4-Chloro-2-cyanophenyl)azetidin-1-yl]carbonyl}-2-methoxy-4-{[(2S)-1,1,1-trifluoropropan-2-yl]oxy}benzonitrile]	< 100
COc1c(C#N)ccc(O[C@@H](C)C(F)(F)F)c1C(=O)N1CC(c2ccc(F)cc2C#N)C1 [Example 127, 3-{[3-(2-Cyano-4-fluorophenyl)azetidin-1-yl]carbonyl}-2-methoxy-4-{[(2S)-1,1,1-trifluoropropan-2-yl]oxy}benzonitrile]	< 100
COc1cc(C#N)ccc1C1CN(C(=O)c2c(O[C@@H](C)C(F)(F)F)ccc(C#N)c2OC)C1 [Example 128, 3-{[3-(4-Cyano-2-methoxyphenyl)azetidin-1-yl]carbonyl}-2-methoxy-4-{[(2S)-1,1,1-trifluoropropan-2-yl]oxy}benzonitrile]	< 100
COc1cc(C(F)(F)F)ccc1C1CN(C(=O)c2c(O[C@@H](C)C(F)(F)F)ccc(C#N)c2OC)C1 [Example 129, 2-Methoxy-3-({3-[2-methoxy-4-(trifluoromethyl)phenyl]azetidin-1-yl}carbonyl)-4-{[(2S)-1,1,1-trifluoropropan-2-yl]oxy}benzonitrile]	100 to 1000
COc1c(C#N)ccc(O[C@@H](C)C(F)(F)F)c1C(=O)N1CC(c2ccc3ncoc3c2)C1 [Example 130, 3-{[3-(1,3-Benzoxazol-6-yl)azetidin-1-yl]carbonyl}-2-methoxy-4-{[(2S)-1,1,1-trifluoropropan-2-yl]oxy}benzonitrile]	< 100
C[C@H](Oc1ccc(C#N)c(Cl)c1C(=O)N1CC(c2ccc(C#N)cc2Cl)C1)C(F)(F)F [Example 131, 2-Chloro-3-{[3-(2-chloro-4-cyanophenyl)azetidin-1-yl]carbonyl}-4-{[(2S)-1,1,1-trifluoropropan-2-yl]oxy}benzonitrile]	< 100
COc1c(C#N)ccc(C2(F)CCOCC2)c1C(=O)N1CC(c2ccc(C#N)cc2Cl)C1 [Example 132, 3-{[3-(2-Chloro-4-cyanophenyl)azetidin-1-yl]carbonyl}-4-(4-fluorooxan-4-yl)-2-methoxybenzonitrile]	< 100
COc1c(C#N)ccc(C2(F)CCC(F)(F)CC2)c1C(=O)N1CC(c2ccc(C#N)cc2Cl)C1 [Example 133, 3-{[3-(2-Chloro-4-cyanophenyl)azetidin-1-yl]carbonyl}-2-methoxy-4-(1,4,4-trifluorocyclohexyl)benzonitrile]	< 100
COc1c(C#N)ccc(C2(F)CCC2)c1C(=O)N1CC(c2ccc(C#N)cc2Cl)C1 [Example 134, 3-{[3-(2-Chloro-4-cyanophenyl)azetidin-1-yl]carbonyl}-4-(1-fluorocyclobutyl)-2-methoxybenzonitrile]	< 100
COc1c(C#N)ccc(O[C@H](C)C(F)(F)F)c1C(=O)N1CC(c2ccc(C(F)(F)F)cn2)C1 [Example 135, 2-Methoxy-3-{3-[5-(trifluoromethyl)pyridin-2-yl]azetidine-1-carbonyl}-4-{[(2R)-1,1,1-trifluoropropan-2-yl]oxy}benzonitrile]	100 to 1000
COc1c(C#N)ccc(O[C@H](C)C(F)(F)F)c1C(=O)N1CC(c2ncc(C(F)(F)F)cc2Cl)C1 [Example 136, 3-{3-[3-Chloro-5-(trifluoromethyl)pyridin-2-yl]azetidine-1-carbonyl}-2-methoxy-4-{[(2R)-1,1,1-trifluoropropan-2-yl]oxy}benzonitrile]	100 to 1000
COc1c(C#N)ccc(O[C@H](C)C(F)(F)F)c1C(=O)N1CC(c2ccc(C(F)F)cn2)C1 [Example 137, 3-{3-[5-(Difluoromethyl)pyridin-2-yl]azetidine-1-carbonyl}-2-methoxy-4-{[(2R)-1,1,1-trifluoropropan-2-yl]oxy}benzonitrile]	< 100
COc1c(S(C)(=O)=O)ccc(O[C@H](C)C(F)(F)F)c1C(=O)N1CC(c2ccc(C(F)(F)F)cc2F)C1 [Example 138, 3-[2-Fluoro-4-(trifluoromethyl)phenyl]-1-(3-methanesulfonyl-2-methoxy-6-{[(2R)-1,1,1-trifluoropropan-2-yl]oxy}benzoyl)azetidine]	100 to 1000
COc1c(S(C)(=O)=O)ccc(O[C@@H](C)C(F)(F)F)c1C(=O)N1CC(c2ccc(C(F)(F)F)cc2F)C1 [Example 139, 3-[2-Fluoro-4-(trifluoromethyl)phenyl]-1-(3-methanesulfonyl-2-methoxy-6-{[(2S)-1,1,1-trifluoropropan-2-yl]oxy}benzoyl)azetidine]	< 100
COc1c(S(C)(=O)=O)ccc(O[C@H](C)C(F)(F)F)c1C(=O)N1CC(c2ccc(C(F)(F)F)c(F)c2)C1 [Example 140, 3-[3-Fluoro-4-(trifluoromethyl)phenyl]-1-(3-methanesulfonyl-2-methoxy-6-{[(2R)-1,1,1-trifluoropropan-2-yl]oxy}benzoyl)azetidine]	100 to 1000
COc1c(S(C)(=O)=O)ccc(O[C@@H](C)C(F)(F)F)c1C(=O)N1CC(c2ccc(C(F)(F)F)c(F)c2)C1 [Example 141, 3-[3-Fluoro-4-(trifluoromethyl)phenyl]-1-(3-methanesulfonyl-2-methoxy-6-{[(2S)-1,1,1-trifluoropropan-2-yl]oxy}benzoyl)azetidine]	100 to 1000
COc1c(S(C)(=O)=O)ccc(O[C@@H](C)C(F)(F)F)c1C(=O)N1CC(c2ccc(C(F)F)c(F)c2)C1 [Example 142, 3-[4-(Difluoromethyl)-3-fluorophenyl]-1-(3-methanesulfonyl-2-methoxy-6-{[(2S)-1,1,1-trifluoropropan-2-yl]oxy}benzoyl)azetidine]	1000 to 10000
COc1c(S(C)(=O)=O)ccc(O[C@@H](C)C(F)(F)F)c1C(=O)N1CC(c2ccc(C(F)F)cc2F)C1 [Example 143, 3-[4-(Difluoromethyl)-2-fluorophenyl]-1-(3-methanesulfonyl-2-methoxy-6-{[(2S)-1,1,1-trifluoropropan-2-yl]oxy}benzoyl)azetidine]	100 to 1000
COc1cc(C2CN(C(=O)c3c(O[C@@H](C)C(F)(F)F)ccc(S(C)(=O)=O)c3OC)C2)ccc1C(F)(F)F [Example 144, 1-(3-Methanesulfonyl-2-methoxy-6-{[(2S)-1,1,1-trifluoropropan-2-yl]oxy}benzoyl)-3-[3-methoxy-4-(trifluoromethyl)phenyl]azetidine]	1000 to 10000
COc1c(S(C)(=O)=O)ccc(O[C@@H](C)C(F)(F)F)c1C(=O)N1CC(c2ccc(F)cc2Cl)C1 [Example 145, 3-(2-Chloro-4-fluorophenyl)-1-(3-methanesulfonyl-2-methoxy-6-{[(2S)-1,1,1-trifluoropropan-2-yl]oxy}benzoyl)azetidine]	100 to 1000
COc1c(S(C)(=O)=O)ccc(O[C@@H](C)C(F)(F)F)c1C(=O)N1CC(c2ccc(C(F)(F)F)cc2Cl)C1 [Example 146, 3-[2-Chloro-4-(trifluoromethyl)phenyl]-1-(3-methanesulfonyl-2-methoxy-6-{[(2S)-1,1,1-trifluoropropan-2-yl]oxy}benzoyl)azetidine]	< 100
COc1c(S(C)(=O)=O)ccc(O[C@@H](C)C(F)(F)F)c1C(=O)N1CC(c2ccc(C(F)F)cc2Cl)C1 [Example 147, 3-[2-Chloro-4-(difluoromethyl)phenyl]-1-(3-methanesulfonyl-2-methoxy-6-{[(2S)-1,1,1-trifluoropropan-2-yl]oxy}benzoyl)azetidine]	< 100
COc1c(S(C)(=O)=O)ccc(O[C@@H](C)C(F)(F)F)c1C(=O)N1CC(c2ccc([N+](=O)[O-])cc2)C1 [Example 148, 1-(3-Methanesulfonyl-2-methoxy-6-{[(2S)-1,1,1-trifluoropropan-2-yl]oxy}benzoyl)-3-(4-nitrophenyl)azetidine]	< 100
